dPhe(4-Cl) = N[C@H](Cc1ccc(Cl)cc1)C(=O)O; d2Nal = N[C@H](Cc1ccc2ccccc2c1)C(=O)O; dDeh = not defined here

The subject of this series is female mice. Nature of the series: acute subcutaneous toxicity in mice (21-day observation). It counts as in vivo. The settings on record: administered subcutaneously to each of 6 female mice, 0.3 m.g. per animal (or 12 mg/kg body weight). The method, then:
Compounds 8,16,18,19 and 24 from Example 8 were administered subcutaneously to each of 6 female mice at a dose level of 0.3 m.g. per animal (or 12 mg/kg body weight). During an observation period of 21 days, no deaths were recorded in any of the treatment groups.
The acute subcutaneous LD50 in mice is thus greater than 12 mg/kg for these compounds.

For “N-Ac-D-Nal(2)-D-p-Cl-Phe-D-Trp-Ser-Tyr-D-Deh-Leu-Arg-Pro-D-AlaNH2 [Compound 19]”, the “deaths recorded during an observation period of 21 days” value is listed as “no deaths”.
In the case of “N-Ac-D-Nal(2)-D-p-Cl-Phe-D-Trp-Ser-Tyr-D-Deh-Leu-Arg-Pro-GlyNH2 ({Ac-d2Nal-dPhe(4-Cl)-dW-Ser-Tyr-dDeh}-LRPG-NH2; reading uncertain; also: printed as N-Ac-D-Nal(2)-D-p-Cl-Phe-D-Trp-Ser-Tyr-D-Deh-Leu-Arg-Pro-GlyNH2) [Compound 18]”, the “deaths recorded during an observation period of 21 days” value is listed as “no deaths”.
Turning to “N-Ac-D-Nal(2)-D-p-F-Phe-D-Trp-Ser-Tyr-D-Deh-Leu-Arg-Pro-GlyNH2 [Compound 16]”, the “deaths recorded during an observation period of 21 days” value is on record as “no deaths”.
For “N-Ac-D-p-Cl-Phe-D-p-Cl-Phe-D-Trp-Ser-Tyr-D-Dph-Leu-Arg-Pro-D-AlaNH2 [Compound 8]”, the “deaths recorded during an observation period of 21 days” value is “no deaths”.

Source of the values: EP0097031B1, “Nonapeptide and decapeptide analogs of LHRH useful as LHRH antagonists, their preparation and compositions containing them” (SYNTEX (U.S.A.) INC., priority 1982, dated 1988).
